These are literature values, as cited in PMC3266668 (Frontiers in Pharmacology, 2012).

The subject of series [1] is isolated left ventricular wedge preparations. The following applies: ref Lu et al., [2010].
The test system of another series is isolated rabbit hearts. The following applies: ref Lu et al., [2010].
Series [2] deals with patients after myocardial infarction. The following applies: ref Echt et al., [1991].

Take `CCN(CC)CC(=O)Nc1c(C)cccc1C` [lidocaine]: in series [1], the QRS interval effect entry is recorded as “only slightly increased QRS duration” and the ventricular tachycardia entry is “without inducing ventricular tachycardia”. In the series with isolated rabbit hearts, the QRS interval effect entry is given as “small increase in QRS duration” and the ventricular tachycardia entry is given as “did not induce ventricular tachycardia”.
Regarding `COc1ccc(C(=O)Nc2ccccc2CCC2CCCCN2C)cc1` (stereo not drawn) [encainide], the “mortality in CAST treatment arms” value in series [2] is reported as “increased mortality due to arrhythmias”.
With `O=C(NCC1CCCCN1)c1cc(OCC(F)(F)F)ccc1OCC(F)(F)F` (stereo not drawn) [flecainide], the “mortality in CAST treatment arms” value in series [2] is recorded as “increased mortality due to arrhythmias”.
